US9120770B2, “Substituted pyridine and pyrazine compounds as PDE4 inhibitors” (DART NEUROSCIENCE (CAYMAN) LTD., priority 2013, dated 2015)
pEC50: −log10 of the molar value.

Target: PDE4D3 (Homo sapiens, UniProt Q08499)
Sequence (Q08499 1-673 isoform Q08499-2): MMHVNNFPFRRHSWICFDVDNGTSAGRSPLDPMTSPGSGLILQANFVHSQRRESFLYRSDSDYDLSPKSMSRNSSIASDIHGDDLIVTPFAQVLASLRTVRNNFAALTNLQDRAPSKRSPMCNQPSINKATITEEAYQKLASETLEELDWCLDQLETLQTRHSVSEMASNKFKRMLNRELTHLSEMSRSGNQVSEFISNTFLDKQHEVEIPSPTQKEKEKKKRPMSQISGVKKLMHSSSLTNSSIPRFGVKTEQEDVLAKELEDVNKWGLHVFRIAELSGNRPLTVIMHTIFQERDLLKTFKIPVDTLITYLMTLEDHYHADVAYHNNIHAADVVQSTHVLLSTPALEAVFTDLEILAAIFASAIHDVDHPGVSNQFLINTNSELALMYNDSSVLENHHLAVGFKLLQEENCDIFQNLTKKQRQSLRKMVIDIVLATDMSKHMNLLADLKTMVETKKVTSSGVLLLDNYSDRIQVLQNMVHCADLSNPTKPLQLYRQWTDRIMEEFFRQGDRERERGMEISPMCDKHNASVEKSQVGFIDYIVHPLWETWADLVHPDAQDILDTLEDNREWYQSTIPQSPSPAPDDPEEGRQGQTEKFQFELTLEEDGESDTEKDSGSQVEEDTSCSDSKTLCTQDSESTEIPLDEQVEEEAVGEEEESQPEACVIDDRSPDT

Row | SMILES | pEC50
1 | COc1ncc(Cn2ccnc2)cc1-c1cccc(Cl)c1 [Example 173, 3-(3-Chlorophenyl)-5-(1H-imidazol-1-ylmethyl)-2-methoxypyridine] | > 7.00
2 | Fc1cccc(-c2cc(Cn3cncn3)cnc2OC(F)F)c1 [Example 174, 2-(Difluoromethoxy)-3-(3-fluorophenyl)-5-(1H-1,2,4-triazol-1-ylmethyl)pyridine] | > 7.00
3 | COc1cccc(-c2cc(Cn3cncn3)cnc2OC(F)F)c1 [Example 175, 2-(Difluoromethoxy)-3-(3-methoxyphenyl)-5-(1H-1,2,4-triazol-1-ylmethyl)pyridine] | < 5.00
4 | FC(F)Oc1ncc(Cn2cncn2)cc1-c1cccc(OC(F)(F)F)c1 [Example 176, 2-(Difluoromethoxy)-5-(1H-1,2,4-triazol-1-ylmethyl)-3-[3-(trifluoromethoxy)phenyl]pyridine] | 6.00 to 7.00
5 | COc1ncc(Cn2ccccc2=O)cc1-c1cccc(Cl)c1 [Example 177, 1-{[5-(3-Chlorophenyl)-6-methoxypyridin-3-yl]methyl}-1,2-dihydropyridin-2-one] | 5.00 to 6.00
6 | COc1ncc(Cn2cc(Cl)cn2)cc1-c1cccc(Cl)c1 [Example 178, 5-[(4-Chloro-1H-pyrazol-1-yl)methyl]-3-(3-chlorophenyl)-2-methoxypyridine] | 6.00 to 7.00
7 | COc1ncc(Cn2cc(C)cn2)cc1-c1cccc(Cl)c1 [Example 179, 3-(3-Chlorophenyl)-2-methoxy-5-[(4-methyl-1H-pyrazol-1-yl)methyl]pyridine] | 6.00 to 7.00
8 | COc1ncc(Cn2cc([N+](=O)[O-])cn2)cc1-c1cccc(Cl)c1 [Example 180, 3-(3-Chlorophenyl)-2-methoxy-5-[(4-nitro-1H-pyrazol-1-yl)methyl]pyridine] | 6.00 to 7.00
9 | CCOc1ncc(Cn2cnc(C)n2)nc1-c1cccc(OC(F)F)c1 [Example 185, 3-[3-(Difluoromethoxy)phenyl]-2-ethoxy-5-[(3-methyl-1H-1,2,4-triazol-1-yl)methyl]pyrazine] | > 7.00
10 | CCOc1ncc(Cn2cnc(C3CC3)n2)nc1-c1cccc(OC(F)F)c1 [Example 186, 5-[(3-Cyclopropyl-1H-1,2,4-triazol-1-yl)methyl]-3-[3-(difluoromethoxy)phenyl]-2-ethoxypyrazine] | 5.00 to 6.00
11 | CCOc1ncc(Cn2cnc(C(F)(F)F)n2)nc1-c1cccc(OC(F)F)c1 [Example 187, 3-[3-(Difluoromethoxy)phenyl]-2-ethoxy-5-{[3-(trifluoromethyl)-1H-1,2,4-triazol-1-yl]methyl}pyrazine] | 5.00 to 6.00
12 | CCOc1ncc(Cn2cnc(COC)n2)nc1-c1cccc(OC(F)F)c1 [Example 189, 3-[3-(Difluoromethoxy)phenyl]-2-ethoxy-5-{[3-(methoxymethyl)-1H-1,2,4-triazol-1-yl]methyl}pyrazine] | 6.00 to 7.00
13 | CCOc1ncc(Cn2cnc(C(=O)OC)n2)nc1-c1cccc(OC(F)F)c1 [Example 191, Methyl 1-((6-(3-(difluoromethoxy)phenyl)-5-ethoxypyrazin-2-yl)methyl)-1H-1,2,4-triazole-3-carboxylate] | 6.00 to 7.00
14 | CCOc1ncc(Cn2cnc([N+](=O)[O-])n2)nc1-c1cccc(OC(F)F)c1 [Example 193, 3-(3-(Difluoromethoxy)phenyl)-2-ethoxy-5-((3-nitro-1H-1,2,4-triazol-1-yl)methyl)pyrazine] | 5.00 to 6.00
15 | NC(=O)c1cn(Cc2cnc(OC(F)F)c(-c3cccc(Cl)c3)c2)cn1 [Example 198, 1-{[5-(3-Chlorophenyl)-6-(difluoromethoxy)pyridin-3-yl]methyl}-1H-imidazole-4-carboxamide] | 5.00 to 6.00
16 | OCc1ncn(Cc2cnc(OC(F)F)c(-c3cccc(Cl)c3)c2)n1 [Example 200, (1-{[5-(3-Chlorophenyl)-6-(difluoromethoxy)pyridin-3-yl]methyl}-1H-1,2,4-triazol-3-yl)methanol] | 6.00 to 7.00
17 | CCOc1ncc(Cn2cnc(CO)n2)cc1-c1cccc(OC(F)F)c1 [Example 201, [1-({5-[3-(Difluoromethoxy)phenyl]-6-ethoxypyridin-3-yl}methyl)-1H-1,2,4-triazol-3-yl]methanol] | > 7.00
18 | COc1ncc(Cn2cnc(CO)n2)cc1-c1cccc(OC(F)F)c1 [Example 202, [1-({5-[3-(Difluoromethoxy)phenyl]-6-methoxypyridin-3-yl}methyl)-1H-1,2,4-triazol-3-yl]methanol] | > 7.00

Results, then the molecule that gave them:

Row | pEC50 | SMILES
19 | 5.00 to 6.00 | COc1ncc(Cn2cc([N+](=O)[O-])cn2)nc1-c1cccc(Cl)c1 [Example 181, 3-(3-Chlorophenyl)-2-methoxy-5-[(4-nitro-1H-pyrazol-1-yl)methyl]pyrazine]
20 | 5.00 to 6.00 | COc1ncc(Cn2cccn2)nc1-c1cccc(Cl)c1 [Example 182, 3-(3-Chlorophenyl)-2-methoxy-5-(1H-pyrazol-1-ylmethyl)pyrazine]
21 | > 7.00 | COc1ncc(Cn2ccnc2)nc1-c1cccc(Cl)c1 [Example 183, 3-(3-Chlorophenyl)-5-(1H-imidazol-1-ylmethyl)-2-methoxypyrazine]
22 | 5.00 to 6.00 | COc1ncc(Cn2cc(C)cn2)nc1-c1cccc(Cl)c1 [Example 184, 3-(3-Chlorophenyl)-2-methoxy-5-[(4-methyl-1H-pyrazol-1-yl)methyl]pyrazine]
23 | 6.00 to 7.00 | CCOc1ncc(Cn2ncnc2C(F)(F)F)nc1-c1cccc(OC(F)F)c1 [Example 188, 3-[3-(Difluoromethoxy)phenyl]-2-ethoxy-5-{[5-(trifluoromethyl)-1H-1,2,4-triazol-1-yl]methyl}pyrazine]
24 | 5.00 to 6.00 | CCOc1ncc(Cn2ncnc2COC)nc1-c1cccc(OC(F)F)c1 [Example 190, 3-[3-(Difluoromethoxy)phenyl]-2-ethoxy-5-{[5-(methoxymethyl)-1H-1,2,4-triazol-1-yl]methyl}pyrazine]
25 | 5.00 to 6.00 | CCOc1ncc(Cn2ncnc2C(=O)OC)nc1-c1cccc(OC(F)F)c1 [Example 192, Methyl 1-((6-(3-(difluoromethoxy)phenyl)-5-ethoxypyrazin-2-yl)methyl)-1H-1,2,4-triazole-5-carboxylate]
26 | 5.00 to 6.00 | CCOc1ncc(Cn2ncnc2[N+](=O)[O-])nc1-c1cccc(OC(F)F)c1 [Example 194, 3-(3-(Difluoromethoxy)phenyl)-2-ethoxy-5-((5-nitro-1H-1,2,4-triazol-1-yl)methyl)pyrazine]
27 | 5.00 to 6.00 | COC(=O)c1ncnn1Cc1cnc(OC)c(-c2cccc(Cl)c2)n1 [Example 195, Methyl 1-{[6-(3-chlorophenyl)-5-methoxypyrazin-2-yl]methyl}-1H-1,2,4-triazole-5-carboxylate]
28 | 5.00 to 6.00 | COC(=O)c1ncn(Cc2cnc(OC)c(-c3cccc(OC(F)F)c3)n2)n1 [Example 196, Methyl 1-({6-[3-(difluoromethoxy)phenyl]-5-methoxypyrazin-2-yl}methyl)-1H-1,2,4-triazole-3-carboxylate]
29 | 5.00 to 6.00 | CCOc1ncc(Cn2cnc(C(=O)OC)n2)nc1-c1cccc(Cl)c1 [Example 197, Methyl 1-{[6-(3-chlorophenyl)-5-ethoxypyrazin-2-yl]methyl}-1H-1,2,4-triazole-3-carboxylate]
30 | 5.00 to 6.00 | COc1ncc(Cn2cnc(CO)n2)nc1-c1cccc(Cl)c1 [Example 199, (1-{[6-(3-Chlorophenyl)-5-methoxypyrazin-2-yl]methyl}-1H-1,2,4-triazol-3-yl)methanol]
